Columns and labels:
[1] = molecular target: T1, human cloned dopamine D4.2-receptors (Homo sapiens, UniProt P21917, DEL265-296); assay: Inhibition of the binding of 3H-YM-09151-2 to human dopamine D4 receptors; conditions: [3H]YM-09151-2 0.06 nM; for IC50: membranes of CHO-cells expressing human D4.2; for inhibition at 0.1 µM: at 100 nM, CHO-cell membranes, human D4.2
T1 construct: expressed in transfected cells; host or cells: CHO cells
T1 sequence (P21917 with tags, fused parts or gaps DEL265-296): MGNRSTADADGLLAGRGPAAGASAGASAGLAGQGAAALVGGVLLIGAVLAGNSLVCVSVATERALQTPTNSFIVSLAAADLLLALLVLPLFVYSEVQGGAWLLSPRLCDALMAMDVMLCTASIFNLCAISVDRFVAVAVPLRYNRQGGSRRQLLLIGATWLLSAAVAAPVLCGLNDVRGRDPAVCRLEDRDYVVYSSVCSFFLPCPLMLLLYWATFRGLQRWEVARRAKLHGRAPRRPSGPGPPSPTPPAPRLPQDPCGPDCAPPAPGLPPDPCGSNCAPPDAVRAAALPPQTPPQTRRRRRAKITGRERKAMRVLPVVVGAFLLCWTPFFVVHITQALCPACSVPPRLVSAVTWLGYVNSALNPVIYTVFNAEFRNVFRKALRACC
Method: Inhibition of the Binding of ^3H-YM-09151-2 to Human Dopamine D4 Receptors
By this method, the inhibition by drugs of the binding of [^3H]YM-09151-2 (0.06 nM) to membranes of human cloned dopamine D4.2-receptors expressed in CHO-cells is determined in vitro. Method modified from NEN Life Science Products, Inc., technical data certificate PC2533-10/96.

[2] = molecular target: T2, cloned human 5-HT1A-receptors (Homo sapiens, UniProt P08908); assay: Inhibition of 3H-5-CT binding to human 5-HT1A receptors; conditions: transfected HeLa cells (HA7), 15 minutes at 37° C., pH 7.7; for inhibition at 0.05 µM: at 50 nM
T2 construct: expressed in transfected cells; host or cells: HeLa cells (HA7)
T2 sequence (P08908 1-422): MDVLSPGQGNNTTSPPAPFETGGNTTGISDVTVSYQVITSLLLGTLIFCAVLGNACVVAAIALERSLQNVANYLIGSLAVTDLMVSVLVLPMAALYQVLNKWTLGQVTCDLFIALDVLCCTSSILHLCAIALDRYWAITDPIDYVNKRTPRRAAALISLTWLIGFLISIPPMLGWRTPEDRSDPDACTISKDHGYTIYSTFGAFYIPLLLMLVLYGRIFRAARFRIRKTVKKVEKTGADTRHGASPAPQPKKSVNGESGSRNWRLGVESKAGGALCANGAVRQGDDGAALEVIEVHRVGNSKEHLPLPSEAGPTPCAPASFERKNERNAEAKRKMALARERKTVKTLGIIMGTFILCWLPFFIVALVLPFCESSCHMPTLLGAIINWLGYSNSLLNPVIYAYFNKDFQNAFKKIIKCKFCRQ
Method: The affinity of the compounds of the invention to 5-HT1A receptors was determined by measuring the inhibition of binding of a radioactive ligand at 5-HT1A-receptors as described in the following test:
Inhibition of ^3H-5-CT Binding to Human 5-HT1A Receptors.
By this method, the inhibition by drugs of the binding of the 5-HT1A-agonist ^3H-5-carboxamido tryptamine (^3H-5-CT) to cloned human 5-HT1A-receptors stably expressed in transfected HeLa cells (HA7) (Fargin, A. et al. J. Biol. Chem. 1989, 264, 14848) is determined in vitro. The assay was performed as a modification of the method described by Harrington, M. A. et al. J. Pharmacol. Exp. Ther. 1994, 268, 1098. Human 5-HT1A-receptors (40 μg of cell homogenate) were incubated for 15 minutes at 37° C. in 50 mM Tris buffer at pH 7.7 in the presence of ^3H-5-CT. Non-specific binding was determined by including 10 μM of metergoline. The reaction was terminated by rapid filtration through Unifilter GF/B filters on a Tomtec Cell Harvester. Filters were counted in a Packard Top Counter.

Compound | IC50 [1] [nM] | IC50 [2] [nM] | inhibition at 0.1 µM [1] [%] | inhibition at 0.05 µM [2] [%]
Clc1ccccc1SCCCN1CCN(c2cccc3[nH]ccc23)CC1 [Compound 2a, 4-{4-[3-(2-Chloro-phenylsulfanyl)-propyl]-piperazin-1-yl}-1H-indole] | 1.1 | 2.4 | – | –
Brc1ccccc1SCCCN1CCN(c2cccc3[nH]ccc23)CC1 [Compound 2b, 4-(4-[3-(2-Bromo-phenylsulfanyl)-propyl]-piperazin-1-yl}-1H-indole] | 1.2 | 2.7 | – | –
Fc1ccc(OCCCCN2CCN(c3cccc4[nH]ccc34)CC2)c(Br)c1 [Compound 2d, 4-{4-[4-(2-Bromo-4-fluoro-phenoxy)-butyl]-piperazin-1-yl}-1H-indole] | 1.6 | 6.4 | – | –
Cc1cccc(Cl)c1SCCCCN1CCN(c2cccc3[nH]ccc23)CC1 [Compound 2e, 4-{4-[4-(2-Chloro-6-methyl-phenylsulfanyl)-butyl]-piperazin-1-yl}-1H-indole] | 2.2 | 4.5 | – | –
Fc1ccc(SCCN2CCN(c3cccc4[nH]ccc34)CC2)c(Cl)c1 [Compound 3a, 4-{4-[2-(2-Chloro-4-fluoro-phenylsulanyl)-ethyl]-piperazin-1-yl}-1H-indole] | 6.6 | 15 | – | –
Fc1ccc(SCCCN2CCN(c3cccc4[nH]ccc34)CC2)c(Cl)c1 [Compound 4a] | 0.52 | 9.3 | – | –
Fc1ccc(OCCCCN2CCN(c3cccc4[nH]ccc34)CC2)c(Br)c1 [Compound 4b, 4-{4-[4-(2-Bromo-4-fluoro-phenoxy)-butyl]-piperazin-1-yl}-1H-indole] | 0.66 | 2.4 | – | –
Fc1ccc(OCCCN2CCN(c3cccc4[nH]ccc34)CC2)c(F)c1 [Compound 4c] | 1.6 | 5.4 | – | –
Clc1cccc(Cl)c1SCCCCN1CCN(c2cccc3[nH]ccc23)CC1 [Compound 4d, 4-{4-[4-(2,6-Dichloro-phenylsulfanyl)-butyl]-piperazin-1-yl}-1H-indole] | 1.8 | 7.1 | – | –
Fc1ccc(OCCCN2CCN(c3cccc4[nH]ccc34)CC2)c(Cl)c1 [Compound 4e, 4-{4-[3-(2-Chloro-4-fluoro-phenoxy)-propyl]-piperazin-1-yl}-1H-indole] | 2 | 4.9 | – | –
Cc1cccc(Cl)c1SCCCCN1CCN(c2cccc3[nH]ccc23)CC1 [Compound 4f] | 3 | 5.8 | – | –
Fc1cc(Cl)c(OCCCCN2CCN(c3cccc4[nH]ccc34)CC2)c(Cl)c1 [Compound 4g, 4-{4-[4-(2,6-Dichloro-4-fluoro-phenoxy)-butyl]-piperazin-1-yl}-1H-indole] | 4.9 | 2.4 | – | –
Fc1cc(F)c(OCCCN2CCN(c3cccc4[nH]ccc34)CC2)c(Br)c1 [Compound 4h, 4-{4-[3-(2-Bromo-4,6-difluoro-phenoxy)-propyl]-piperazin-1-yl}-1H-indole] | 5.4 | 1.4 | – | –
Fc1cc(Cl)c(OCCCN2CCN(c3cccc4[nH]ccc34)CC2)c(Cl)c1 [Compound 4i, 4-{4-[3-(2,6-Dichloro-4-fluoro-phenoxy)-propyl]-piperazin-1-yl}-1H-indole] | 16 | 1 | – | –
Fc1cc(Br)cc(F)c1OCCCCN1CCN(c2cccc3[nH]ccc23)CC1 [Compound 4j, 4-{4-[4-(4-Bromo-2,6-difluoro-phenoxy)-butyl]-piperazin-1-yl}-1H-indole] | 23 | 17 | – | –
Fc1cc(Br)c(OCCCCN2CCN(c3cccc4[nH]ccc34)CC2)c(Br)c1 [Compound 4k, 4-{4-[4-(2,6-Dibromo-4-fluoro-phenoxy)-butyl]-piperazin-1-yl}-1H-indole] | 26 | 6.7 | – | –
Brc1cc(Br)c(OCCCN2CCN(c3cccc4[nH]ccc34)CC2)c(Br)c1 [Compound 4l, 14-{4-[3-(2,4,6-Tribromo-phenoxy)-propyl]-piperazin-1-yl}-1H-indole] | 28 | 1.1 | – | –
Fc1cc(Br)cc(F)c1OCCCN1CCN(c2cccc3[nH]ccc23)CC1 [Compound 4m, 4-{4-[3-(4-Bromo-2,6-difluoro-phenoxy)-propyl]-piperazin-1-yl}-1H-indole] | 39 | 1 | – | –
CCC(=O)c1cc(F)c(OCCCN2CCN(c3cccc4[nH]ccc34)CC2)c(F)c1 [Compound 4n, 1-(3,5-Difluoro-4-{3-[4-(1H-indol-4-yl)-piperazin-1-yl]-propoxy}-phenyl)-propan-1-one] | 230 | 0.72 | – | –
N#Cc1cc(Br)c(OCCCN2CCN(c3cccc4[nH]ccc34)CC2)c(Br)c1 [Compound 4o, 3,5-Dibromo-4-{3-[4-(1H-indol-4-yl)-piperazin-1-yl]-propoxy}-benzonitrile] | 32 | 0.72 | – | –
Fc1cc(F)c(OCCN2CCN(c3cccc4[nH]ccc34)CC2)c(Br)c1 [Compound 4p, 4-{4-[2-(2-Bromo-4,6-difluoro-phenoxy)-ethyl]-piperazin-1-yl}-1H-indole] | 13 | 36 | – | –
Clc1cccc(Cl)c1SCCCN1CCN(c2cccc3[nH]ccc23)CC1 [Compound 4q, 4-{4-[3-(2,6-Dichloro-phenylsulfanyl)-propyl]-piperazin-1-yl}-1H-indole] | 7.2 | 3.5 | – | –

Second part, the compound after the results:

IC50 [1] [nM] | IC50 [2] [nM] | inhibition at 0.1 µM [1] [%] | inhibition at 0.05 µM [2] [%] | Compound
– | – | 81 | 78 | Cc1cccc(C)c1OCCN1CCN(c2cccc3[nH]ccc23)CC1 [Compound 5aa, 4-{4-[2-(2,6-Dimethyl-phenoxy)-ethyl]-piperazin-1-yl}-1H-indole]
– | – | 95 | 83 | Cc1cccc(C)c1SCCCCN1CCN(c2cccc3[nH]ccc23)CC1 [Compound 5ab, 4-{4-[4-(2,6-Dimethyl-phenylsulfanyl)-butyl]-piperazin-1-yl}-1H-indole]
– | – | 83 | 85 | Cc1ccc(SCCN2CCN(c3cccc4[nH]ccc34)CC2)c(C)c1 [Compound 5ac, 4-{4-[2-(2,4-Dimethyl-phenylsulfanyl)-ethyl]-piperazin-1-yl}-1H-indole]
4.1 | – | – | 76 | Clc1cccc(SCCN2CCN(c3cccc4[nH]ccc34)CC2)c1Cl [Compound 5ad, 4-{4-[2-(2,3-Dichloro-phenylsulfanyl)-ethyl]-piperazin-1-yl}-1H-indole]
– | – | 88 | 92 | C=CCc1cccc(Cl)c1OCCN1CCN(c2cccc3[nH]ccc23)CC1 [Compound 5ae, 4-{4-[2-(2-Allyl-6-chloro-phenoxy)-ethyl]-piperazin-1-yl}1H-indole]
7.2 | – | – | 93 | FC(F)(F)c1ccccc1SCCCN1CCN(c2cccc3[nH]ccc23)CC1 [Compound 5af, 4-{4-[3-(2-Trifluoromethyl-phenylsulfanyl)-propyl]-piperazin-1-yl}-1H-indole]
– | – | 95 | 93 | Clc1ccc(SCCCN2CCN(c3cccc4[nH]ccc34)CC2)cc1Cl [Compound 5ag, 4-{4-[3-(3,4-Dichloro-phenylsulfanyl)-propyl]-piperazin-1-yl}-1H-indole]
– | – | 90 | 86 | Cc1ccc(OCCCCN2CCN(c3cccc4[nH]ccc34)CC2)c(C)c1 [Compound 5ah, 4-{4-[4-(2,4-Dimethyl-phenoxy)-butyl]-piperazin-1-yl}-1H-indole]
– | – | 90 | 93 | CCc1ccccc1OCCCCN1CCN(c2cccc3[nH]ccc23)CC1 [Compound 5ai, 4-{4-[4-(2-Ethyl-phenoxy)-butyl]-piperazin-1-yl}-1H-indole]

— US20030050307A1, “Novel indole derivatives” (H. Lundbeck A/S, priority 1999, published 2003)
